These results are taken from patent US12473301B2, “Isoquinoline compounds for the treatment of cancer” (Genentech, Inc., priority 2018, dated 2025).

The structures appear in SMILES notation. pKi: −log10 of the molar value.

Chain of HPK1 (Q92918 whole entry T165E/S171E): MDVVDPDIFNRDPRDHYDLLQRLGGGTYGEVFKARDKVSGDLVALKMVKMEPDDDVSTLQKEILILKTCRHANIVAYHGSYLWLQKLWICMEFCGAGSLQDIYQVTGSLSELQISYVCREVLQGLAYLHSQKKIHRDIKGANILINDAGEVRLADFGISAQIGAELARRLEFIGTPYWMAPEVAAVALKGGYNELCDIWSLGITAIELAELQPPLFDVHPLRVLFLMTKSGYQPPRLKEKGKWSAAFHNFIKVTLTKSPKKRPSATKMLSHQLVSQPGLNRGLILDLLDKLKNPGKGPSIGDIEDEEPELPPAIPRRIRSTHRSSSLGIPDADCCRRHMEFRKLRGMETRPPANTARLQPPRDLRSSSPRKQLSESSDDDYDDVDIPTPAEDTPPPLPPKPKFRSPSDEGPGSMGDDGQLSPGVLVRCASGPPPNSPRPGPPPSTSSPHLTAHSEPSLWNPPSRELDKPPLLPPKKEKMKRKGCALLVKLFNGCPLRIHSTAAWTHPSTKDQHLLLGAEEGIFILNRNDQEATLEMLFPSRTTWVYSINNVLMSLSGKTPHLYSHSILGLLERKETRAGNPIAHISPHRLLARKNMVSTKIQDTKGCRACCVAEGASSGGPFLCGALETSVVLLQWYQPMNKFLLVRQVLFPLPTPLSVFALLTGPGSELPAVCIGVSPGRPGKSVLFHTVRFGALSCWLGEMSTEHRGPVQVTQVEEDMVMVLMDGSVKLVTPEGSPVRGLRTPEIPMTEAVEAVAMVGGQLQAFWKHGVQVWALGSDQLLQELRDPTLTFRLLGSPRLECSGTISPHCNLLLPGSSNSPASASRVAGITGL

The target in the experiment is HPK1 (Homo sapiens (Human), UniProt Q92918, S171E/T165E). Description: HPK1-FL HTRF Enzymatic Assay ("HTRF"). The note with it: HPK full length, ATP 1 mM. The experiment is classed as biochemical. As for the experimental part:
HPK1-FL HTRF Enzymatic Assay (“HTRF”)
HPK-FL enzyme phosphorylates Biotin-SLP-76 substrate in the presence of ATP at 1 mM and varying concentrations of test compound. Product is detected by FRET using Eu-anti-pSLP76 Ab and SA-XL665. Also see www.cisbio.com/HTRF for additional HTRF technology information.
Instrumentation: Echo555 compound dispenser; Agilent Bravo; Perkin Elmer Envision.
To a 384 well Proxiplate with 80 nL compound or DMSO spotted on was added 4 μl/well kinase mix. The mixture was preincubated for 30 minutes and then 4 μl/well substrate mix was added. The solution was incubated for 60 min and then 4 μl/well detection mix was added. The solution was incubated for another 60 min. The plates were then loaded onto a
Perkin Elmer Envision and the TR-FRET signal was measured at […] and 665 nm. A ratio of 665/620 was used to calculate the % activity at each concentration of compound.
For orientation: Time-resolved FRET reads energy transfer from a long-lived donor to a nearby acceptor.
Broadly, the pKi is the negative decadic logarithm of the Ki, by convention in mol/L. With `Cc1c(-c2cc3cc(NC(=O)O[C@@H]4CCCC[C@H]4C#N)ncc3c(Cl)c2F)cnc2c1NCCO2` (single isomer, unassigned) [Compound 126b], the pKi is 9.02.

Turning to `Cc1c(-c2cc3cc(NC(=O)OCC(C)N)ncc3cc2F)cnc2c1NCCO2` (racemic) [Compound 110, 2-Aminopropyl (7-fluoro-6-(8-methyl-2,3-dihydro-1H-pyrido[2,3-b][1,4]oxazin-7-yl)isoquinolin-3-yl)carbamate], the pKi is 7.54.

In turn, `CC[C@H]1[C@H](C(=O)Nc2cc3cc(-c4cnc5c(c4C)NCCO5)c(F)cc3cn2)[C@H]1c1cnn(C)c1` (single isomer, unassigned) [Compound 301b] gave a pKi of 8.10.

As for `Cc1c(-c2cc3cc(NC(=O)NC4CNC4)ncc3cc2F)cnc2c1NCCO2` [Compound 205, 1-(Azetidin-3-yl)-3-(7-fluoro-6-(8-methyl-2,3-dihydro-1H-pyrido[2,3-b][1,4]oxazin-7-yl)isoquinolin-3-yl)urea], the negative logarithm of the Ki (pKi) was 9.12.

`Cc1c(N)cncc1-c1cc2cc(NC(=O)OCC3CC3)ncc2cc1F` [Compound 102, Cyclopropylmethyl (6-(5-amino-4-methylpyridin-3-yl)-7-fluoroisoquinolin-3-yl)carbamate] had a pKi of 7.35.

Compound `CC(=O)N1CC(OC(=O)Nc2cc3cc(-c4cnc5c(c4C)NCCO5)c(F)cc3cn2)C1` [Compound 104, 1-Acetylazetidin-3-yl (7-fluoro-6-(8-methyl-2,3-dihydro-1H-pyrido[2,3-b][1,4]oxazin-7-yl)isoquinolin-3-yl)carbamate] showed a negative logarithm of the Ki (pKi) of 8.54.

In turn, `Cc1c(-c2cc3cc(NC(=O)OC4CCC45CCNC5)ncc3cc2F)cnc2c1NCCO2` (racemic) [Compound 123, 6-Azaspiro[3.4]octan-1-yl (7-fluoro-6-(8-methyl-2,3-dihydro-1H-pyrido[2,3-b][1,4]oxazin-7-yl)isoquinolin-3-yl)carbamate] had a pKi of 8.12.

Compound `Cc1c(-c2cc3cc(NC(=O)OC4CC5(C4)CN(C)C5)ncc3cc2F)cnc2c1NCCC2` [Compound 132, 2-Methyl-2-azaspiro[3.3]heptan-6-yl (7-fluoro-6-(4-methyl-5,6,7,8-tetrahydro-1,5-naphthyridin-3-yl)isoquinolin-3-yl)carbamate] gave a pKi of 8.94.

As for `Cc1c(-c2cc3cc(NC(=O)O[C@H]4CCCC[C@@H]4C#N)ncc3c(Cl)c2F)cnc2c1NCCO2` (single isomer, unassigned) [Compound 126a], the pKi is 6.31.

As for `Cc1c(-c2cc3cc(NC(=O)NC(C)CC#N)ncc3cc2F)cnc2c1NCCO2` (single isomer, unassigned) [Compound 203b], the negative-log Ki (pKi) was 8.96.

As for `Cc1c(-c2cc3cc(NC(=O)OC4COC5(CCNC5)C4)ncc3cc2F)cnc2c1NCCO2` (racemic) [Compound 108, 1-Oxa-7-azaspiro[4.4]nonan-3-yl (7-fluoro-6-(8-methyl-2,3-dihydro-1H-pyrido[2,3-b][1,4]oxazin-7-yl)isoquinolin-3-yl)carbamate], the pKi was 8.40.

Take `Cc1c(-c2cc3cc(NC(=O)OCCS(C)(=O)=O)ncc3cc2F)cnc2c1NCCO2` [Compound 117, 2-(Methylsulfonyl)ethyl (7-fluoro-6-(8-methyl-2,3-dihydro-1H-pyrido[2,3-b][1,4]oxazin-7-yl)isoquinolin-3-yl)carbamate]: the pKi is 8.21.

The compound `Cc1c(-c2cc3cc(NC(=O)OCCc4ccccn4)ncc3cc2F)cnc2c1NCCO2` [Compound 119, 2-(Pyridin-2-yl)ethyl (7-fluoro-6-(8-methyl-2,3-dihydro-1H-pyrido[2,3-b][1,4]oxazin-7-yl)isoquinolin-3-yl)carbamate] showed a pKi of 8.02.

On to `Cc1c(-c2cc3cc(NC(=O)OC4CS(=O)(=O)C4)ncc3cc2F)cnc2c1NCCO2` [Compound 130, 1,1-Dioxidothientan-3-yl (7-fluoro-6-(8-methyl-2,3-dihydro-1H-pyrido[2,3-b][1,4]oxazin-7-yl)isoquinolin-3-yl)carbamate], for which the pKi is 8.39.

As for `CC[C@H]1[C@H](C(=O)Nc2cc3cc(-c4c[n+]([O-])ccc4C)c(F)cc3cn2)[C@H]1c1cnn(C)c1` [Compound 302b, 3-(3-((1S,2R,3S)-2-Ethyl-3-(1-methyl-1H-pyrazol-4-yl)cyclopropane-1-carboxamido)-7-fluoroisoquinolin-6-yl)-4-methylpyridine 1-oxide], the pKi was 5.70.

Take `Cc1c(-c2cc3cc(NC(=O)O[C@H]4CCC[C@@H]4C#N)ncc3c(Cl)c2F)cnc2c1NCCO2` (single isomer, unassigned) [Compound 127b]: the pKi is 8.43.

Turning to `CC[C@@H]1[C@@H](C(=O)Nc2cc3cc(-c4cnc5c(c4C)NCCO5)c(F)cc3cn2)[C@@H]1c1cnn(C)c1` (single isomer, unassigned) [Compound 301a], the pKi was 9.05.

In turn, `Cc1c(-c2cc3cc(NC(=O)OC[C@H]4CCCN4)ncc3cc2F)cnc2c1NCCO2` [Compound 109a, (R)-Pyrrolidin-2-ylmethyl (7-fluoro-6-(8-methyl-2,3-dihydro-1H-pyrido[2,3-b][1,4]oxazin-7-yl)isoquinolin-3-yl)carbamate] had a pKi of 7.60.

In turn, `Cc1c(-c2cc3cc(NC(=O)OCCC4C5CNCC45)ncc3cc2F)cnc2c1NCCO2` (centres unmarked) [Compound 124, 2-(3-Azabicyclo[3.1.0]hexan-6-yl)ethyl (7-fluoro-6-(8-methyl-2,3-dihydro-1H-pyrido[2,3-b][1,4]oxazin-7-yl)isoquinolin-3-yl)carbamate] had a pKi of 9.36.

`Cc1c(-c2cc3cc(NC(=O)OCCN)ncc3cc2F)cnc2c1NCCO2` [Compound 112, 2-Aminoethyl (7-fluoro-6-(8-methyl-2,3-dihydro-1H-pyrido[2,3-b][1,4]oxazin-7-yl)isoquinolin-3-yl)carbamate] had a negative logarithm of the Ki (pKi) of 7.49.

`Cc1c(-c2cc3cc(NC(=O)OCC(C)(C)C)ncc3cc2F)cnc2c1NCCO2` [Compound 120, Neopentyl (7-fluoro-6-(8-methyl-2,3-dihydro-1H-pyrido[2,3-b][1,4]oxazin-7-yl)isoquinolin-3-yl)carbamate] gave a pKi of 8.37.

For the compound `Cc1c(-c2cc3cc(NC(=O)OCC4(F)CCNCC4)ncc3cc2F)cnc2c1NCCO2` [Compound 111, (4-Fluoropiperidin-4-yl)methyl (7-fluoro-6-(8-methyl-2,3-dihydro-1H-pyrido[2,3-b][1,4]oxazin-7-yl)isoquinolin-3-yl)carbamate], the pKi is 8.40.

Compound `COC(C)CCOC(=O)Nc1cc2cc(-c3cnc4c(c3C)NCCO4)c(F)cc2cn1` (racemic) [Compound 114, 3-Methoxybutyl (7-fluoro-6-(8-methyl-2,3-dihydro-1H-pyrido[2,3-b][1,4]oxazin-7-yl)isoquinolin-3-yl)carbamate] showed a pKi of 8.82.

Turning to `Cc1c(-c2cc3cc(NC(=O)NC4CCOCC4)ncc3cc2F)cnc2c1NCCO2` [Compound 204, 1-(7-Fluoro-6-(8-methyl-2,3-dihydro-1H-pyrido[2,3-b][1,4]oxazin-7-yl)isoquinolin-3-yl)-3-(tetrahydro-2H-pyran-4-yl)urea], the pKi was 9.08.

The compound `Cc1c(-c2cc3cc(NC(=O)OCC4(F)CCNC4)ncc3cc2F)cnc2c1NCCO2` (racemic) [Compound 106, (3-Fluoropyrrolidin-3-yl)methyl (7-fluoro-6-(8-methyl-2,3-dihydro-1H-pyrido[2,3-b][1,4]oxazin-7-yl)isoquinolin-3-yl)carbamate] gave a negative logarithm of the Ki (pKi) of 8.62.

`Cc1c(-c2cc3cc(NC(=O)OCC(F)(F)F)ncc3cc2F)cnc2c1NCCO2` [Compound 118, 2,2,2-Trifluoroethyl (7-fluoro-6-(8-methyl-2,3-dihydro-1H-pyrido[2,3-b][1,4]oxazin-7-yl)isoquinolin-3-yl)carbamate] showed a pKi of 6.69.

The compound `Cc1c(-c2cc3cc(NC(=O)OC4CC5(CCN(C)CC5)C4)ncc3cc2F)cnc2c1NCCC2` [Compound 133, 7-Methyl-7-azaspiro[3.5]nonan-2-yl (7-fluoro-6-(4-methyl-5,6,7,8-tetrahydro-1,5-naphthyridin-3-yl)isoquinolin-3-yl)carbamate] had a pKi of 8.97.

Compound `Cc1c(-c2cc3cc(NC(=O)OCC4CC4)ncc3cc2F)cnc2c1NCCO2` [Compound 101, Cyclopropylmethyl (7-fluoro-6-(8-methyl-2,3-dihydro-1H-pyrido[2,3-b][1,4]oxazin-7-yl)isoquinolin-3-yl)carbamate] had a pKi of 8.57.

In turn, `Cc1c(-c2cc3cc(NC(=O)OC4CCOCC4)ncc3cc2F)cnc2c1NCCO2` [Compound 103, Tetrahydro-2H-pyran-4-yl (7-fluoro-6-(8-methyl-2,3-dihydro-1H-pyrido[2,3-b][1,4]oxazin-7-yl)isoquinolin-3-yl)carbamate] showed a pKi of 8.30.

As to `Cc1c(-c2cc3cc(NC(=O)OCC45CC4CCN5)ncc3cc2F)cnc2c1NCCO2` (racemic) [Compound 122, (2-Azabicyclo[3.1.0]hexan-1-yl)methyl (7-fluoro-6-(8-methyl-2,3-dihydro-1H-pyrido[2,3-b][1,4]oxazin-7-yl)isoquinolin-3-yl)carbamate], the pKi was 7.62.

Consider `CNC(=O)N1CC(OC(=O)Nc2cc3cc(-c4cnc5c(c4C)NCCO5)c(F)cc3cn2)C1` [Compound 105, 1-(Methylcarbamoyl)azetidin-3-yl (7-fluoro-6-(8-methyl-2,3-dihydro-1H-pyrido[2,3-b][1,4]oxazin-7-yl)isoquinolin-3-yl)carbamate], for which the pKi is 9.04.

Take `Cc1c(-c2cc3cc(NC(=O)NC4CCOC4)ncc3cc2F)cnc2c1NCCO2` (single isomer, unassigned) [Compound 206a]: the pKi was 9.06.
